The source of these data is ChEMBL document CHEMBL1201862, “PubChem BioAssay data set” (2004).

Among the test systems are A549; ACHN; BT-549; DU-145; EKVX; HCC 2998; HCT-15; HOP-62; HOP-92; HT-29; IGROV-1; KM12; MDA-MB-435; NCI-H23; OVCAR-4; SK-MEL-5; SK-OV-3; SNB-75; T47D; TK-10.
What all share (test): NCI tumour cell line growth inhibition, 48 h

The structures appear in SMILES notation.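 A five-concentration, 48-hour dose response in 96-well plates underlies each endpoint, interpolated linearly between surrounding concentrations. GI50 is the concentration that inhibits growth by half.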 Active and inactive are the calls of the source. Rule as the data show it: active = GI50 up to about 1.1 µM and inactive = higher. Bounds are passed on as bounds.

Regarding `Cc1ccccc1OC(C)C(=O)NN1C(=O)CSC1c1ccccc1` (stereo not given), the GI50 with A549 is 42 µM (inactive); with ACHN, 60.5 µM (inactive); with BT-549 it was > 100 µM (inactive); in the test with DU-145, > 100 µM (inactive); with EKVX, 83.2 µM (inactive); in the test with HCC 2998, 63.2 µM (inactive). Also, the GI50 in the test on HCT-15 was 65.3 µM; in the test on HOP-62 it was > 100 µM (inactive); in the test on HOP-92 it was 47.8 µM (inactive); in the test on HT-29, 93.1 µM (inactive); in the test with IGROV-1 it was > 100 µM (inactive); in the test with KM12 it was 93.5 µM (inactive). The GI50 in the test on MDA-MB-435 was 79.3 µM (inactive); in the test on NCI-H23, 53.2 µM (inactive); with OVCAR-4 it was > 100 µM (inactive); in the test with SK-MEL-5, 32.2 µM (inactive); in the test with SK-OV-3 it was > 100 µM (inactive); in the test with SNB-75, 60.7 µM (inactive). Also, the GI50 is 34.7 µM (inactive) in the test on T47D and > 100 µM (inactive) in the test on TK-10.
Consider `CCc1nc2cc(/N=N/c3c(O)ccc4ccccc34)ccc2[nH]1`, for which the GI50 with A549 is 21.4 µM (inactive); in the test on ACHN, 17.1 µM (inactive); with BT-549, 18.7 µM (inactive); in the test with DU-145, 17 µM (inactive); in the test on EKVX, 19.1 µM (inactive); in the test on HCC 2998, 14.6 µM (inactive). Besides, the GI50 in the test with HCT-15 is 12.6 µM; in the test with HOP-62, 21.1 µM (inactive); in the test on HOP-92 it was 20.5 µM (inactive); in the test with HT-29 it was 19.4 µM (inactive); in the test with IGROV-1 it was 19.6 µM (inactive); with KM12 it was 11.2 µM (inactive). Moreover, the GI50 in the test with MDA-MB-435 was 19.7 µM (inactive); with NCI-H23, 21.2 µM (inactive); in the test on OVCAR-4, 14 µM (inactive); in the test with SK-MEL-5 it was 18.5 µM (inactive); in the test on SK-OV-3, 24.7 µM (inactive); in the test with SNB-75, 20.6 µM (inactive). In addition, the GI50 in the test on T47D was 24.3 µM (inactive); with TK-10 it was 18.4 µM (inactive).
With `COc1cc(-c2[o+]c3cc(O)cc(OC4OC(CO)C(O)C(O)C4O)c3cc2OC2OC(CO)C(O)C(O)C2O)cc(OC)c1O` (stereo not given), the GI50 in the test on A549, with ACHN, in the test on BT-549, with DU-145, with EKVX and with HCC 2998 was > 100 µM (inactive) throughout. In addition, the GI50 is greater than 100 µM in the test with HCT-15; > 100 µM (inactive) in the test on HOP-62; > 100 µM (inactive) in the test on HOP-92; > 100 µM (inactive) in the test on HT-29; > 100 µM (inactive) in the test with IGROV-1; > 100 µM (inactive) in the test on KM12. In addition, the GI50 in the test on MDA-MB-435, with NCI-H23, in the test with OVCAR-4, with SK-MEL-5, with SK-OV-3 and in the test with SNB-75 was > 100 µM (inactive) each time. The GI50 in the test on T47D and in the test on TK-10 was > 100 µM (inactive) each time.
Consider `CC(=O)NCCC1CN(C(=O)/C=C\I)c2ccccc21` (stereo not given), for which the GI50 was 13.8 µM (inactive) in the test with A549; 14.5 µM (inactive) with ACHN; 21.6 µM (inactive) with BT-549; 13.9 µM (inactive) with DU-145; 17.3 µM (inactive) with EKVX; 15.2 µM (inactive) with HCC 2998. Further, the GI50 with HCT-15 is 7.71 µM; in the test on HOP-62, 11.2 µM (inactive); with HOP-92, 21.7 µM (inactive); with HT-29 it was 11.7 µM (inactive); in the test on IGROV-1, 15.1 µM (inactive); with KM12, 5.7 µM (inactive). Also, the GI50 is 14.2 µM (inactive) with MDA-MB-435; 16.4 µM (inactive) in the test with NCI-H23; 18.9 µM (inactive) in the test on OVCAR-4; 3.48 µM (inactive) in the test on SK-MEL-5; 20 µM (inactive) in the test with SK-OV-3; 17.8 µM (inactive) in the test with SNB-75. Moreover, the GI50 in the test with T47D is 18.2 µM (inactive); in the test with TK-10, 6.17 µM (inactive).
For the compound `CN(C)c1ccc(/C=N/c2ccc(-c3nc4ccccc4s3)cc2)cc1`, the GI50 was 39.7 µM (inactive) in the test with A549; 17.4 µM (inactive) in the test on ACHN; 35.4 µM (inactive) in the test with BT-549; 35.6 µM (inactive) in the test on DU-145; 24.6 µM (inactive) in the test on EKVX; 20.8 µM (inactive) in the test with HCC 2998. Further, the GI50 in the test with HCT-15 was 32.1 µM; in the test on HOP-62, 24.5 µM (inactive); in the test on HOP-92, 22.4 µM (inactive); in the test with HT-29, 32.5 µM (inactive); in the test with IGROV-1 it was 36.2 µM (inactive); with KM12, 24.9 µM (inactive). In addition, the GI50 in the test with MDA-MB-435 was 33.8 µM (inactive); with NCI-H23, 29.9 µM (inactive); with OVCAR-4, 58.7 µM (inactive); in the test on SK-MEL-5 it was 19.3 µM (inactive); in the test with SK-OV-3 it was 36.8 µM (inactive); in the test with SNB-75, 26.3 µM (inactive). Moreover, the GI50 is 20 µM (inactive) in the test with T47D and 30.1 µM (inactive) with TK-10.
Consider `Cc1occc1C(=S)Nc1ccc(Cl)c(/C=N/OC(C)C)c1`, for which the GI50 is 22.3 µM (inactive) in the test with A549; 21.2 µM (inactive) with ACHN; 18.2 µM (inactive) in the test on BT-549; 24 µM (inactive) in the test on DU-145; 23 µM (inactive) with EKVX; 26.5 µM (inactive) in the test on HCC 2998. Besides, the GI50 was 17.4 µM with HCT-15; 25.2 µM (inactive) with HOP-62; 16.1 µM (inactive) with HOP-92; 19.3 µM (inactive) with HT-29; 27.8 µM (inactive) in the test on IGROV-1; 20 µM (inactive) with KM12. For the same compound, the GI50 with MDA-MB-435 was 16.4 µM (inactive); in the test with NCI-H23, 20.1 µM (inactive); in the test with OVCAR-4, 24.9 µM (inactive); in the test with SK-MEL-5, 19.9 µM (inactive); in the test on SK-OV-3, 24.3 µM (inactive); in the test on SNB-75, 25.1 µM (inactive). The GI50 with T47D is 12.1 µM (inactive); with TK-10, 25.5 µM (inactive).
For `CC(C)c1nc(Cl)nc(Cl)c1Cl`, the GI50 in the test with A549 was 1.58 µM (inactive); in the test with ACHN, 0.264 µM (active); with BT-549, 0.0113 µM (active); with DU-145 it was 3.12 µM (inactive); with EKVX, 1.63 µM (inactive); in the test on HCC 2998, 0.948 µM (active). Also, the GI50 is 0.279 µM in the test with HCT-15; 0.794 µM (active) with HOP-62; 0.0233 µM (active) with HOP-92; 0.0479 µM (active) with HT-29; 0.172 µM (active) in the test with IGROV-1; 0.293 µM (active) in the test with KM12. Moreover, the GI50 is 0.241 µM (active) in the test on MDA-MB-435; 0.474 µM (active) with NCI-H23; 0.249 µM (active) in the test on OVCAR-4; 0.861 µM (active) with SK-MEL-5; 4.58 µM (inactive) in the test on SK-OV-3; 5.11 µM (inactive) with SNB-75. In addition, the figures for the GI50 with T47D and in the test with TK-10 were 0.6 µM (active) and 0.468 µM (active), respectively.
Take `COc1ccc(/C=c2\c(=O)[nH]c3nc4ccccc4c(=O)n23)cc1`: the GI50 with A549 was 91.4 µM (inactive); in the test with ACHN, > 100 µM (inactive); in the test on BT-549 it was 27.3 µM (inactive); with DU-145, 61.2 µM (inactive); in the test on EKVX, 54.1 µM (inactive); with HCC 2998, 80.5 µM (inactive). Besides, the GI50 with HCT-15 was 64 µM; in the test on HOP-62 it was > 100 µM (inactive); in the test with HOP-92 it was 64.7 µM (inactive); with HT-29, 69.8 µM (inactive); in the test on IGROV-1 it was 68.4 µM (inactive); in the test with KM12 it was 73.5 µM (inactive). In addition, the GI50 in the test with MDA-MB-435 was 51.2 µM (inactive); with NCI-H23, 73.8 µM (inactive); in the test with OVCAR-4, > 100 µM (inactive); with SK-MEL-5, 73.6 µM (inactive); in the test with SK-OV-3, > 100 µM (inactive); in the test with SNB-75 it was 32.5 µM (inactive). Also, the GI50 was 36.5 µM (inactive) in the test with T47D and > 100 µM (inactive) with TK-10.
As for `CC1(C)O[C@@H]([C@H](O)CO)[C@H](O)[C@@H](C2SCCCS2)O1`, the GI50 in the test on A549, in the test with ACHN, in the test with BT-549, in the test with DU-145, in the test on EKVX and in the test on HCC 2998 was > 100 µM (inactive) in each case. The GI50 with HCT-15 is greater than 100 µM; in the test on HOP-62, > 100 µM (inactive); with HOP-92, 34.4 µM (inactive); in the test with HT-29 it was > 100 µM (inactive); in the test with IGROV-1 it was > 100 µM (inactive); in the test with KM12 it was > 100 µM (inactive). Further, the GI50 with MDA-MB-435, in the test with NCI-H23, in the test on OVCAR-4, with SK-MEL-5, in the test on SK-OV-3 and in the test with SNB-75 was > 100 µM (inactive) each time. Besides, the GI50 with T47D and in the test on TK-10 was > 100 µM (inactive) in each case.
Turning to `Cc1ccc(/N=N\c2c(O)c(S(=O)(=O)O)cc3cc(S(=O)(=O)O)ccc23)c(C)c1`, the GI50 in the test on A549, in the test with ACHN, with BT-549, in the test with DU-145, in the test with EKVX and in the test on HCC 2998 was > 100 µM (inactive) each time. Moreover, the GI50 is greater than 100 µM in the test on HCT-15; > 100 µM (inactive) in the test with HOP-62; > 100 µM (inactive) in the test on HOP-92; > 100 µM (inactive) in the test on HT-29; > 100 µM (inactive) with IGROV-1; > 100 µM (inactive) in the test on KM12. Also, the GI50 in the test with MDA-MB-435, with NCI-H23, in the test with OVCAR-4, in the test on SK-MEL-5, in the test with SK-OV-3 and with SNB-75 was > 100 µM (inactive) throughout. In addition, the GI50 in the test on T47D and in the test on TK-10 was > 100 µM (inactive) in each case.
